The values that follow come from patent US11918582B2 (RAPT Therapeutics, Inc., priority 2021, dated 2024).

The test has as its target T1, human HPK1 (MAP4K1) (Homo sapiens, UniProt Q92918).
T1 construct: Recombinant human HPK1 kinase domain was obtained from ThermoFisher (Cat. #PV6357) and SignalChem (Cat. #M23-11G); purchased ThermoFisher; SignalChem PV6357; M23-11G
T1 sequence (Q92918 17-274 limits assumed): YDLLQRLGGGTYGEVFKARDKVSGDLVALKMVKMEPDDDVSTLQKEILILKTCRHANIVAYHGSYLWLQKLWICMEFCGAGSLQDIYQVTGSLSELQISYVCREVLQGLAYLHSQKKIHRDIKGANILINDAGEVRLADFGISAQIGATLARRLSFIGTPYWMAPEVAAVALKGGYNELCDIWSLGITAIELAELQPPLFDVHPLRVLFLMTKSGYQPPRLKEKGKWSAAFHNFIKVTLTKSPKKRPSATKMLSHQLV
Briefly: Biochemical assay for activity against HPK1 (ADP-Glo, MBP substrate). The settings on record: recombinant human HPK1 kinase domain, 1 nM enzyme, ADP-Glo luminescence. The text has this:
These compounds are made by the synthetic methods described earlier herein. Example 227 Biochemical Assay for Testing Compounds for Activity against HPK1
The enzymatic activity of human HPK1 (MAP4K1) was monitored in a biochemical assay in the presence or absence of compounds, using a peptide substrate (myelin basic protein, MBP), with an ADP-Glo assay kit (Promega, Cat. #V9103). An increase in phosphorylation of the peptide by HPK1 was indicative of its kinase activity.
Recombinant human HPK1 kinase domain was obtained from ThermoFisher (Cat. #PV6357) and SignalChem (Cat. #M23-11G). A 1 nM HPK1 kinase enzyme solution was prepared from the HPK1 stock received from the commercial supplier using an assay buffer containing 50 mM HEPES (4-(2-hydroxyethyl)-1-piperazineethanesulfonic acid) pH 7.5 (Fisher Scientific, Cat. #H1035), 150 mM NaCl (Fisher Scientific, Cat. #50843067), 3 mM TCEP-HCl (Tris(2-carboxyethyl)phosphine hydrochloride; Fisher Scientific, Cat. #PIPG82080), 10 mM MgCl2 (Fisher Scientific, Cat. #AM9530G), 0.005% Tween-20 (Fisher Scientific, Cat. #BP337500) and 0.01% BSA (bovine serum albumin; ThermoFisher, Cat. #15260037), in ultra-pure water. The final concentration of the assay buffer was 770 nM. A 5 mM stock solution of the peptide substrate was prepared using […] MBP (Myelin Basic Protein, Active Motif, Cat. #31314), 10 mM ATP (adenosine 5′-triphosphate; Sigma-Aldrich, Cat. #GE27-2056-01) and of assay buffer.
Test compounds were dissolved in DMSO (dimethyl sulfoxide) at 10 mM and then serial dilutions were prepared using a ViaFlow assist multichannel dispenser (Integra ViaFlo). 20 nL of test compounds at various concentrations were dispensed into a 1536-well assay plate (Corning Cat. #7247) using an Echo Nanoliter dispenser (Labcyte ECHO 550). […] of a 1 nM solution of HPK1 kinase enzyme diluted in assay buffer was added to the compound-containing plate using a Mantis Microliter dispenser (Formulatrix Mantis), covered with a lid, and incubated for 15 minutes at room temperature. 50 nL of a 5 mM stock solution of the peptide substrate (MBP) were added using the Echo Nanoliter dispenser. The plate was covered with a lid, centrifugated at 500 rpm for 1 minute and incubated for 2 hours at room temperature. […] of ADP-Glo reagent A was added using the Mantis Microliter dispenser, centrifugated at 500 rpm for 30 seconds and incubated for 40 minutes at room temperature. […] of ADP-Glo reagent B was added using the Mantis Microliter dispenser, centrifugated at 500 rpm for 30 seconds and incubated for 30 minutes at room temperature. Peptide phosphorylation was measured by luminescence on an Envision plate reader (PerkinElmer).
The HPK1 biochemical IC50 activity levels of the compounds of Examples 1-225 were tested using this assay and are shown in Table 2.

Counter-ions that a name gives are not always drawn.

Turning to `CN1CCc2ccc(Nc3ncc4cnn([C@H]5CC[C@H](C(=O)O)CC5)c4n3)cc2C1` [Example 32, (1r,4r)-4-(6-((2-methyl-1,2,3,4-tetrahydroisoquinolin-7-yl)amino)-1H-pyrazolo[3,4-d]pyrimidin-1-yl)cyclohexane-1-carboxylic acid], the 50% inhibitory concentration (IC50) – broadly, the concentration at which inhibition is half-maximal – is less than 100 nM.

On to `COc1cc2c(cc1Nc1ncc3cnn(C[C@H]4CCCN4S(C)(=O)=O)c3n1)CN(C)CC2` [Example 118, (R)-6-methoxy-2-methyl-N-(1-((1-(methylsulfonyl)pyrrolidin-2-yl)methyl)-1H-pyrazolo[3,4-d]pyrimidin-6-yl)-1,2,3,4-tetrahydroisoquinolin-7-amine trifluoroacetate], for which the IC50 was less than 100 nM.

Regarding `COc1cc2c(cc1Nc1ncc3cnn(C[C@@H]4CCCC[C@H]4CO)c3n1)CN(C)CC2` (racemic) [Example 165, [rac-trans-2-[[6-[(6-methoxy-2-methyl-3,4-dihydro-1H-isoquinolin-7-yl)amino]pyrazolo[3,4-d]pyrimidin-1-yl]methyl]cyclohexyl]methanol], the IC50 was less than 100 nM.

As for `CNC(=O)[C@H]1CC[C@H](n2ncc3cnc(Nc4cc5c(cc4OC)CCN(C)C5)nc32)CC1` [Example 60, (1r,4r)-4-(6-((6-methoxy-2-methyl-1,2,3,4-tetrahydroisoquinolin-7-yl)amino)-1H-pyrazolo[3,4-d]pyrimidin-1-yl)-N-methylcyclohexane-1-carboxamide], the IC50 was less than 100 nM.

Consider `COc1cc2c(cc1Nc1ncc3cnn(C[C@@H]4CCCN4S(N)(=O)=O)c3n1)CN(C)CC2` [Example 190, (S)-2-((6-((6-methoxy-2-methyl-1,2,3,4-tetrahydroisoquinolin-7-yl)amino)-1H-pyrazolo[3,4-d]pyrimidin-1-yl)methyl)pyrrolidine-1-sulfonamide hydrochloride], for which the IC50 was less than 100 nM.

Take `COc1cc2c(cc1Nc1ncc3cnn([C@@H]4C[C@@H]5C[C@H]4N(C(C)=O)C5)c3n1)CN(C)CC2` (relative stereo) [Example 193, rel-1-((1R,4S,6R)-6-(6-((6-methoxy-2-methyl-1,2,3,4-tetrahydroisoquinolin-7-yl)amino)-1H-pyrazolo[3,4-d]pyrimidin-1-yl]-2-azabicyclo[2.2.1]heptan-2-yl)ethan-1-one]: the half-inhibitory concentration (IC50) was less than 100 nM.

With `COc1cc2c(cc1Nc1ncc3cnn(CC4CC4(F)F)c3n1)CN(C)CC2` (stereo not shown) [Example 206, N-(1-((2,2-difluorocyclopropyl)methyl)-1H-pyrazolo[3,4-d]pyrimidin-6-yl)-6-methoxy-2-methyl-1,2,3,4-tetrahydroisoquinolin-7-amine], the IC50 was less than 100 nM.

With `COc1cc2c(cc1Nc1ncc3cnn(C[C@@H]4CCC[C@H]4CO)c3n1)CN(C)CC2` (racemic) [Example 160, Rac-trans-2-[[6-[(6-methoxy-2-methyl-3,4-dihydro-1H-isoquinolin-7-yl)amino]pyrazolo[3,4-d]pyrimidin-1-yl]methyl]cyclopentyl]methanol], the IC50 is less than 100 nM.

As for `COc1cc2c(cc1Nc1ncc3cnn(C[C@@H]4CCCN4C(N)=O)c3n1)CN(C)CC2` [Example 217, (2S)-2-[[6-[(6-methoxy-2-methyl-3,4-dihydro-1H-isoquinolin-7-yl)amino]pyrazolo[3,4-d]pyrimidin-1-yl]methyl]pyrrolidine-1-carboxamide], the IC50 is less than 100 nM.

For `COc1cc2c(cc1Nc1ncc3cnn(C4CC5(CCN(S(C)(=O)=O)CC5)C4)c3n1)CN(C)CC2` [Example 82, 6-methoxy-2-methyl-N-[1-(7-methylsulfonyl-7-azaspiro[3.5]nonan-2-yl)pyrazolo[3,4-d]pyrimidin-6-yl]-3,4-dihydro-1H-isoquinolin-7-amine], the IC50 was less than 100 nM.

In the case of `COc1cc2c(cc1Nc1ncc3cnn(C[C@@H]4CCCN(S(C)(=O)=O)C4)c3n1)CN(C)CC2` [Example 141, 6-methoxy-2-methyl-N-[1-[[(3S)-1-methylsulfonyl-3-piperidyl]methyl]pyrazolo[3,4-d]pyrimidin-6-yl]-3,4-dihydro-1H-isoquinolin-7-amine], the IC50 was less than 100 nM.

With `COc1cc2c(cc1Nc1ncc3cnn([C@H]4C[C@](C)(CO)C4)c3n1)CN(C)CC2` [Example 76, trans-[3-[6-[(6-methoxy-2-methyl-3,4-dihydro-1H-isoquinolin-7-yl)amino]pyrazolo[3,4-d]pyrimidin-1-yl]-1-methyl-cyclobutyl]methanol], the 50% inhibitory concentration (IC50) is less than 100 nM.

Turning to `COc1cc2c(cc1Nc1ncc3cnn(CC[C@@H](C)O)c3n1)CN(C)CC2` [Example 83, (2R)-4-[6-[(6-methoxy-2-methyl-3,4-dihydro-1H-isoquinolin-7-yl)amino]pyrazolo[3,4-d]pyrimidin-1-yl]butan-2-ol], the IC50 is less than 100 nM.

`CN1CCc2ccc(Nc3ncc4cnn([C@H]5CCCNC5)c4n3)cc2C1` [Example 17, (S)-2-methyl-N-(1-(piperidin-3-yl)-1H-pyrazolo[3,4-d]pyrimidin-6-yl)-1,2,3,4-tetrahydroisoquinolin-7-amine hydrochloride]: the IC50 is less than 100 nM.

For the compound `COc1cc2c(cc1Nc1ncc3cnn(Cc4cc[nH]c(=O)c4)c3n1)CN(C)CC2` [Example 219, 4-[[6-[(6-methoxy-2-methyl-3,4-dihydro-1H-isoquinolin-7-yl)amino]pyrazolo[3,4-d]pyrimidin-1-yl]methyl]-1H-pyridin-2-one], the IC50 was less than 100 nM.

On to `COc1cc2c(cc1Nc1ncc3cnn([C@@H](C)CCO)c3n1)CN(C)CC2` [Example 100], for which the IC50 is less than 100 nM.

Take `CN1CCc2ccc(Nc3ncc4cnn(C5CC6(COC6)C5)c4n3)cc2C1` [Example 13, N-(1-(2-oxaspiro[3.3]heptan-6-yl)-1H-pyrazolo[3,4-d]pyrimidin-6-yl)-2-methyl-1,2,3,4-tetrahydroisoquinolin-7-amine]: the IC50 is less than 100 nM.

On to `COc1nc2c(cc1Nc1ncc3cnn([C@H]4CC[C@H](O)CC4)c3n1)CN(C)CC2` [Example 187, (1r,4r)-4-(6-((2-methoxy-6-methyl-5,6,7,8-tetrahydro-1,6-naphthyridin-3-yl)amino)-1H-pyrazolo[3,4-d]pyrimidin-1-yl)cyclohexan-1-ol], for which the IC50 was less than 100 nM.

In the case of `COc1cc2c(cc1Nc1ncc3cnn([C@H]4CC[C@H](C(N)=O)C4)c3n1)CN(C)CC2` (racemic) [Example 42, rac-(1S,3S)-3-(6-((6-methoxy-2-methyl-1,2,3,4-tetrahydroisoquinolin-7-yl)amino)-1H-pyrazolo[3,4-d]pyrimidin-1-yl)cyclopentane-1-carboxamide], the IC50 was less than 100 nM.

Regarding `COc1cc2c(cc1Nc1ncc3cnn(C4CCN(S(C)(=O)=O)CC4)c3n1)CN(C)CC2` [Example 105, 6-methoxy-2-methyl-N-(1-(1-(methylsulfonyl)piperidin-4-yl)-1H-pyrazolo[3,4-d]pyrimidin-6-yl)-1,2,3,4-tetrahydroisoquinolin-7-amine], the half-inhibitory concentration (IC50) is less than 100 nM.

Consider `COc1cc2c(cc1Nc1ncc3cnn(C[C@H]4C[C@H]4C)c3n1)CN(C)CC2` (racemic) [Example 202, 6-methoxy-2-methyl-N-(1-((cis-2-methylcyclopropyl)methyl)-1H-pyrazolo[3,4-d]pyrimidin-6-yl)-1,2,3,4-tetrahydroisoquinolin-7-amine, Trifluoroacetate Salt], for which the IC50 was less than 100 nM.

As for `COC(=O)N[C@H]1CC[C@H](n2ncc3cnc(Nc4cc5c(cc4OC)CCN(C)C5)nc32)CC1` [Example 80, trans-methyl N-[4-[6-[(6-methoxy-2-methyl-3,4-dihydro-1H-isoquinolin-7-yl)amino]pyrazolo[3,4-d]pyrimidin-1-yl]cyclohexyl]carbamate], the IC50 is less than 100 nM.
